Patent publication US12428378B2, “Methods and materials for increasing level of phosphorylated AMPK protein” (University of Pittsburgh—Of the Commonwealth System of …, priority 2019, dated 2025)

Tested on: pAMPK
Assay: pAMPK immunostaining chemiluminescence assay in Beas2B cells
Type: cell-based
Conditions: Homo sapiens, BEAS-2B, 18 h, DMEM no glucose media, compounds 3-34, 36-44, 47-60 tested as HCl salts, read-out: efficacy (minimal compound concentration needed to increase pAMPK by 30%)
Procedure: Beas2B cells were plated in 384 white nunc plate (4000 cells per well) for overnight. Compounds were serially diluted in DMEM no glucose media using the liquid handler. Cells were washed once using Biotek EL406 before compound addition for additional 18 hours. Cells were washed and fixed with PFA before immunostained with pAMPK primary antibody and anti-Rabbit HRP secondary antibody. Finally, 25 μl of ECL reagent will be added to cells, and chemical luminescence signal will be counted using plate reader. Compounds efficacies (μM) were determined by the minimal compound concentration needed to increase pAMPK by 30%. Activity: “+” equals >10 μM; “++” equals between ≤10 μM and >1 μM; and “+++” equals ≤1 μM.

Question: With `Cn1cncc1C(=O)N(Cc1ccccc1Cl)CC(O)COc1ccc(C(F)(F)F)cc1` (centres unmarked) [compound 108] as the compound, how does the EC (30% increase) read?
Answer: The EC (30% increase) was no more than 1 µM.

Question: For `Cn1cncc1C(=O)N(Cc1ccccc1C(F)(F)F)CC(O)COc1ccc(C(F)(F)F)cc1` (centres unmarked) [compound 145], which EC (30% increase) is on record?
Answer: The EC (30% increase) was 1 to 10 µM.

Question: For `Cc1ccccc1CN(Cc1cccnc1)CC(C)(C)COc1cnc(C(F)(F)F)nc1` [compound 190], which EC (30% increase) is on record?
Answer: Its EC (30% increase) is 1 to 10 µM.

Question: Which EC (30% increase) does the source give for `Cc1ccccc1CN(CC(O)COc1ccc(C(F)(F)F)cc1)C(=O)c1cocn1` (centres unmarked) [compound 78] here?
Answer: Its EC (30% increase) is no more than 1 µM.

Question: For `Cc1ccccc1CN(Cc1cccnc1)C(=O)CCOc1ccc(C(F)(F)F)cc1` [compound 64], which EC (30% increase) is on record?
Answer: Its EC (30% increase) is 1 to 10 µM.

Question: For `[2H]C([2H])(c1cccnc1)N(Cc1ccccc1Cl)CC(O)COc1ccc(C(F)(F)F)cc1` (centres unmarked) [compound 102], which EC (30% increase) is on record?
Answer: The EC (30% increase) was no more than 1 µM.

Question: How did the EC (30% increase) turn out when `FC(F)(F)c1ccc(OCCCN(Cc2cncs2)Cc2ccccc2Cl)cc1` [compound 104] was run?
Answer: Its EC (30% increase) is no more than 1 µM.

Question: How did the EC (30% increase) turn out when `OCC1c2ccccc2CCN1CCCOc1ccc(C(F)(F)F)cc1` (centres unmarked) [compound 188] was run?
Answer: Its EC (30% increase) is no more than 1 µM.

Question: How did the EC (30% increase) turn out when `Cn1ccnc1C(=O)N(Cc1ccccc1Cl)CC(O)COc1ccc(C(F)(F)F)cc1` (centres unmarked) [compound 91] was run?
Answer: The EC (30% increase) was no more than 1 µM.

Question: How did the EC (30% increase) turn out when `Cc1ccccc1CN(Cc1c[nH]nc1-c1ccccc1)CC(O)COc1ccc(C(F)(F)F)cc1` (centres unmarked) [compound 73] was run?
Answer: Its EC (30% increase) is 1 to 10 µM.

Question: With `CC1(c2cccnc2)Cc2ccccc2CN1CC(O)COc1ccc(C(F)(F)F)cc1` (centres unmarked) [compound 178] as the compound, how does the EC (30% increase) read?
Answer: The EC (30% increase) was no more than 1 µM.

Question: Which EC (30% increase) does the source give for `O[C@@H](COc1ccc(C(F)(F)F)cc1)CN1CCc2ccccc2[C@@H]1c1ccccc1` [compound 112] here?
Answer: Its EC (30% increase) is no more than 1 µM.

Question: How did the EC (30% increase) turn out when `CN(CC(O)COc1ccc(C(F)(F)F)cc1)CC(c1ccccc1)c1ccccc1` (centres unmarked) [compound 11] was run?
Answer: Its EC (30% increase) is 1 to 10 µM.

Question: How did the EC (30% increase) turn out when `Cc1ccccc1CN(CC(O)COc1ccc(C(F)(F)F)cc1)C(=O)c1c[nH]cn1` (centres unmarked) [compound 74] was run?
Answer: The EC (30% increase) was 1 to 10 µM.

Question: How did the EC (30% increase) turn out when `Cc1ccccc1CN(CCCOc1ccc(C(F)(F)F)cc1)C(=O)c1ccccc1` [compound 110] was run?
Answer: The EC (30% increase) was no more than 1 µM.

Question: With `O=C(COc1ccc(C(F)(F)F)cc1)Cc1nc2ccccc2cc1-c1cccnc1` [compound 103] as the compound, how does the EC (30% increase) read?
Answer: The EC (30% increase) was greater than 10 µM.

Question: `OC(COc1ccc(C(F)(F)F)cc1)CN1Cc2ccccc2CC1c1cccnc1` (centres unmarked) [compound 56] was tested. Which EC (30% increase) did it give?
Answer: Its EC (30% increase) is no more than 1 µM.

Question: With `OC(COc1ccc(C(F)(F)F)cc1)CN1Cc2ccccc2C1` (centres unmarked) [compound 19] as the compound, how does the EC (30% increase) read?
Answer: The EC (30% increase) was greater than 10 µM.

Question: How did the EC (30% increase) turn out when `Cn1ccnc1CN(CCCOc1ccc(C(F)(F)F)cc1)Cc1ccccc1Cl` [compound 106] was run?
Answer: The EC (30% increase) was no more than 1 µM.

Question: With `FC(F)(F)c1ccc(OCCCN2Cc3ccccc3C[C@H]2c2cccnc2)cc1` [compound 151] as the compound, how does the EC (30% increase) read?
Answer: Its EC (30% increase) is no more than 1 µM.

Question: Which EC (30% increase) does the source give for `Cc1ncccc1CN(Cc1ccccc1)CC(O)COc1ccc(C(F)(F)F)cc1` (centres unmarked) [compound 26] here?
Answer: Its EC (30% increase) is no more than 1 µM.

Question: With `Cc1ccccc1CN(CC(O)COc1ccc(C(F)(F)F)cc1)C(=O)c1cn[nH]c1` (centres unmarked) [compound 76] as the compound, how does the EC (30% increase) read?
Answer: Its EC (30% increase) is 1 to 10 µM.

Question: With `CC(C)(COc1ccc(C(F)(F)F)cc1)CN(Cc1cccnc1)Cc1ccccc1Cl` [compound 186] as the compound, how does the EC (30% increase) read?
Answer: The EC (30% increase) was no more than 1 µM.

Question: With `FC(F)(F)c1ccc(OCCCN2CCc3ccccc3C2c2cncs2)cc1` (centres unmarked) [compound 107] as the compound, how does the EC (30% increase) read?
Answer: Its EC (30% increase) is no more than 1 µM.

Question: With `Cn1cncc1CN(CCOc1ccc(C(F)(F)F)cc1)Cc1ccccc1Cl` [compound 159] as the compound, how does the EC (30% increase) read?
Answer: Its EC (30% increase) is no more than 1 µM.

Question: With `Cc1ccccc1CN(CCCOc1ccc(C(F)(F)F)cc1)Cc1nccn1C` [compound 105] as the compound, how does the EC (30% increase) read?
Answer: The EC (30% increase) was no more than 1 µM.

Question: `OC(COc1ccc(C(F)(F)F)cc1)CN1Cc2ccccc2CC1c1cncs1` (centres unmarked) [compound 98] was tested. Which EC (30% increase) did it give?
Answer: The EC (30% increase) was 1 to 10 µM.

Question: Which EC (30% increase) does the source give for `Cc1ccccc1CN(Cc1cccnc1)CC(C)COc1ccc(C(F)(F)F)cc1` (centres unmarked) [compound 191] here?
Answer: The EC (30% increase) was no more than 1 µM.

Question: Which EC (30% increase) does the source give for `Cc1ccccc1CN(CC(C)COc1ccc(C(F)(F)F)cc1)C(=O)c1cncn1C` (centres unmarked) [compound 195] here?
Answer: Its EC (30% increase) is no more than 1 µM.

Question: For `[2H]C([2H])(c1cccnc1)N(Cc1ccccc1)CC(O)COc1ccc(C(F)(F)F)cc1` (centres unmarked) [compound 47], which EC (30% increase) is on record?
Answer: Its EC (30% increase) is no more than 1 µM.

Question: How did the EC (30% increase) turn out when `Cn1cncc1CN(CCOc1ccc(C(F)(F)F)cc1)Cc1ccccc1F` [compound 160] was run?
Answer: Its EC (30% increase) is no more than 1 µM.

Question: With `Cn1cncc1C(=O)N(Cc1c(Cl)cccc1Cl)CC(O)COc1ccc(C(F)(F)F)cc1` (centres unmarked) [compound 144] as the compound, how does the EC (30% increase) read?
Answer: Its EC (30% increase) is 1 to 10 µM.
